# Laboratory results as given in patent publication US7317125B2 (Hoffman-La Roche Inc., priority 2005, dated 2008).
# Biological target: T1, DGAT1 (Homo sapiens, UniProt O75907)
# T1 construct: expressed in transfected cells; host or cells: CHOK1
# T1 sequence (O75907 1-488): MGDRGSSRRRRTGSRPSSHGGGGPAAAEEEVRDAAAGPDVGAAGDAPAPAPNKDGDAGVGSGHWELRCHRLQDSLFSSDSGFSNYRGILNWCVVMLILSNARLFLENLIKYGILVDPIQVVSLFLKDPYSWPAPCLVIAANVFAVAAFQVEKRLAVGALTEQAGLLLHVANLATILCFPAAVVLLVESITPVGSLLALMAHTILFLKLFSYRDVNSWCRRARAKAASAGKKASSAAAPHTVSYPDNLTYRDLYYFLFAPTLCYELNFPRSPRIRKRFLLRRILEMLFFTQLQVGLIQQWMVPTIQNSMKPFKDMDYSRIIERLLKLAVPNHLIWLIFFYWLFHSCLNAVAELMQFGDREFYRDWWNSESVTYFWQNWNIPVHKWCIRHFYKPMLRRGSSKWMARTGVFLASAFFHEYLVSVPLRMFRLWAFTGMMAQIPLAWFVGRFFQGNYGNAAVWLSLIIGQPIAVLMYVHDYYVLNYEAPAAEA
# Assay: DGAT CHOK1 Cell Assay
# Type: cell-based
# Conditions: CHOK1 cells transfected with DGAT1, 14C palmitic acid, 1 hour at 37° C., triglyceride by TLC
# Text: Materials for the assay were: petroleum ether (J. T. Baker #9268-22); diethyl ether (Aldrich #30995-8); acetic acid; 1,2-dioleoyl-3-palmitoyl-glycerol (Sigma D-1782); ^[…] Palmitic Acid (56.0 mCi/mmol PerkinElmer Life Sciences # NEC 075H); DMEM/F12 (Gibco #11330-032); fetal bovine serum; L-Glutamine; G418/ml media; DMEM High Glucose (Gibco #11995-065); BSA Fraction V Fatty Acid Free (Roche #100 377); 20×°cm silica gel 60 glass plates (EM Science Plates #5721/7).
# CHOK1/DGAT cell culture medium was prepared with DMEM/F12 (Gibco #11330-032), […], and 20 ul G418/ml media. 1,2-dioleoyl-3-palmitoyl-glycerol was prepared by dissolving 10 mg into 1 ml chloroform and stored at −20° C. in 100 μl aliquots. Test compounds were prepared as 10 mM stock solutions in DMSO and store at −20° C. before use. Test dilutions were prepared by five fold serial dilutions over final concentrations.
# CHOK1 cells transfected with DGAT1 were diluted in 6 well plates at 2.5×10^5 cells per well and cultured overnight. Cells were then washed twice with PBS. Test compound solutions (10 μl/2 ml media aliquots) in DMEM High Glucose with 0.01% BSA (fatty acid free) were added to cell culture plates at 800 μl per well. ^14C Palmitic acid (0.5 μCi, 5 μl) was added to each well. The plates were incubated for 1 hour at 37° C. After the incubation period, the plates were placed on ice, cells were scraped into media and transferred to microfuge tubes. 400 μl chloroform:methanol (2:1) was added to each tube. Each tube was briefly vortexed by hand, then mechanically vortexed for 10 minutes. Each tube was then centrifuged at 14,000 RPM for 10 minutes at 4° C. and the bottom layer removed and transferred to a new microfuge tube.
# Extracted samples were spotted onto TLC plates at 20 μl per lane. The TLC plates were eluted with a solvent mixture of petroleum ether, diethyl ether and acetic acid (80:20:1) and air dried. Trigylceride (TG) spots were visualized by placing in an iodine chamber for several minutes. 1 μl of ^14C palmitic acid (diluted 1:10 in 100% EtOH) was spotted on the TG standard lane (at TG level) as a reference. The TLC plates were wrapped in plastic wrap and placed in a phosphorimager cassette for scanning.
# The EC50 values for those compounds tested in this Example were generated using an Excel template, the results of which are shown in Table II: […]
row,SMILES,EC50 [µM]
1,"CC(C)N(NC(=O)c1ccccc1)C(=O)COc1ccc(F)cc1-c1ccc(F)cc1 [Example 1, benzoic acid N′-[2-(5,4′-difluoro-biphenyl-2-yloxy)-acetyl]-N′-isopropyl-hydrazide]",8.3
2,"CC(C)N(NC(=O)c1ccccc1)C(=O)COc1ccc(F)cc1-c1ccccc1Cl [Example 2, benzoic acid N′-[2-(2′-chloro-5-fluoro-biphenyl-2-yloxy)-acetyl]-N′-isopropyl-hydrazide]",3.1
3,"Cc1ccccc1-c1cc(F)ccc1OCC(=O)N(NC(=O)c1ccccc1)C(C)C [Example 3, benzoic acid N′-[2-(5-fluoro-2′-methyl-biphenyl-2-yloxy)-acetyl]-N′-isopropyl-hydrazide]",1.02
4,"COc1ccccc1-c1cc(F)ccc1OCC(=O)N(NC(=O)c1ccccc1)C(C)C [Example 4, benzoic acid N′-[2-(5-fluoro-2′-methoxy-biphenyl-2-yloxy)-acetyl]-N′-isopropyl-hydrazide]",1.81
5,"CC(C)N(NC(=O)c1ccccc1)C(=O)COc1ccc(F)cc1-c1ccccc1F [Example 5, benzoic acid N′-[2-(5,2′-difluoro-biphenyl-2-yloxy)-acetyl]-N′-isopropyl-hydrazide]",2.21
6,"CC(C)N(NC(=O)c1ccccc1)C(=O)COc1ccc(F)cc1-c1cccc(F)c1 [Example 9, benzoic acid N′-[2-(5,3′-difluoro-biphenyl-2-yloxy)-acetyl]-N′-isopropyl-hydrazide]",3.78
7,CC(C)N(NC(=O)c1ccccc1)C(=O)COc1ccc(F)cc1-c1cccc(Cl)c1 [Example 10],0.91
8,"CC(C)N(NC(=O)c1ccccc1)C(=O)COc1ccc(F)cc1-c1ccccc1 [Example 11, benzoic acid N′-[2-(5-fluoro-biphenyl-2-yloxy)-acetyl]-N′-isopropyl-hydrazide]",1.85
9,"CC(C)c1cccc(-c2cc(F)ccc2OCC(=O)N(NC(=O)c2ccccc2)C(C)C)c1 [Example 12, benzoic acid N′-[2-(5-fluoro-3′-isopropyl-biphenyl-2-yloxy)-acetyl]-N′-isopropyl-hydrazide]",1.01
10,"CSc1ccccc1-c1cc(F)ccc1OCC(=O)N(NC(=O)c1ccccc1)C(C)C [Example 13, benzoic acid N′-[2-(5-fluoro-2′-methylsylfanyl-biphenyl-2-yloxy)-acetyl]-N′-isopropyl-hydrazide]",0.31
11,"CC(C)N(NC(=O)c1ccccc1)C(=O)COc1ccc(F)cc1-c1ccccc1[N+](=O)[O-] [Example 14, benzoic acid N′-[2-(5-fluoro-2′-nitro-biphenyl-2-yloxy)-acetyl]-N′-isopropyl-hydrazide]",0.23
12,"CC(C)Oc1ccccc1-c1cc(F)ccc1OCC(=O)N(NC(=O)c1ccccc1)C(C)C [Example 15, benzoic acid N′-[2-(5-fluoro-2′-isopropoxy-biphenyl-2-yloxy)-acetyl]-N′-isopropyl-hydrazide]",4.86
13,"CCc1ccccc1-c1cc(F)ccc1OCC(=O)N(NC(=O)c1ccccc1)C(C)C [Example 16, benzoic acid N′-[2-(2′-ethyl-5-fluoro-biphenyl-2-yloxy)-acetyl]-N′-isopropyl-hydrazide]",0.216
14,"CCCOc1ccccc1-c1cc(F)ccc1OCC(=O)N(NC(=O)c1ccccc1)C(C)C [Example 17, benzoic acid N′-[2-(5-fluoro-2′-propoxy-biphenyl-2-yloxy)-acetyl]-N′-isopropyl-hydrazide]",2.17
15,"COC(=O)c1ccccc1-c1cc(F)ccc1OCC(=O)N(NC(=O)c1ccccc1)C(C)C [Example 18, benzoic acid N′-[2-(2′-methoxycarbonyl-5-fluoro-biphenyl-2-yloxy)-acetyl]-N′-isopropyl-hydrazide]",2.69
16,"Cc1cccc(-c2cc(F)ccc2OCC(=O)N(NC(=O)c2ccccc2)C(C)C)c1C [Example 19, benzoic acid N′-[2-(2′,3′-dimethyl-5-fluoro-biphenyl-2-yloxy)-acetyl]-N′-isopropyl-hydrazide]",1.3
17,"CC(C)N(NC(=O)c1ccccc1)C(=O)COc1ccc(F)cc1-c1ccccc1OC(F)(F)F [Example 20, benzoic acid N′-[2-(5-fluoro-2′-trifluoromethoxy-biphenyl-2-yloxy)-acetyl]-N′-isopropyl-hydrazide]",0.328
18,"CCOc1ccccc1-c1cc(F)ccc1OCC(=O)N(NC(=O)c1ccccc1)C(C)C [Example 21, benzoic acid N′-[2-(2′-ethoxy-5-fluoro-biphenyl-2-yloxy)-acetyl]-N′-isopropyl-hydrazide]",1.34
19,"CC(C)c1ccccc1-c1cc(F)ccc1OCC(=O)N(NC(=O)c1ccccc1)C(C)C [Example 22, benzoic acid N′-[2-(5-fluoro-2′-isopropyl-biphenyl-2-yloxy)-acetyl]-N′-isopropyl-hydrazide]",0.38
20,"CC(C)N(NC(=O)c1ccccc1)C(=O)COc1ccc(F)cc1-c1ccc(F)cc1F [Example 24, benzoic acid N′-[2-(5,2′,4′-trifluoro-biphenyl-2-yloxy)-acetyl]-N′-isopropyl-hydrazide]",2.93
21,"Cc1cc(F)ccc1-c1cc(F)ccc1OCC(=O)N(NC(=O)c1ccccc1)C(C)C [Example 25, benzoic acid N′-[2-(5,4′-difluoro-4′-methyl-biphenyl-2-yloxy)-acetyl]-N′-isopropyl-hydrazide]",1.37
22,"CCc1ccccc1-c1cc(C)ccc1OCC(=O)N(NC(=O)c1ccccc1)C(C)C [Example 26, benzoic acid N′-[2-(2′-ethyl-5-methyl-biphenyl-2-yloxy)-acetyl]-N′-isopropyl-hydrazide]",0.88
23,"CCc1ccccc1-c1cc(F)c(F)cc1OCC(=O)N(NC(=O)c1ccccc1)C(C)C [Example 27, benzoic acid N′-[2-(2′-ethyl-4,5-difluoro-biphenyl-2-yloxy)-acetyl]-N′-isopropyl-hydrazide]",2.1
24,"CCc1ccccc1-c1cc(F)cc(F)c1OCC(=O)N(NC(=O)c1ccccc1)C(C)C [Example 28, benzoic acid N′-[2-(2′-ethyl-3,5-difluoro-biphenyl-2-yloxy)-acetyl]-N′-isopropyl-hydrazide]",0.296
25,"CCc1ccccc1-c1cc(C#N)ccc1OCC(=O)N(NC(=O)c1ccccc1)C(C)C [Example 29, benzoic acid N′-[2-(5-cyano-2′-ethyl-biphenyl-2-yloxy)-acetyl]-N′-isopropyl-hydrazide]",1.37
26,"CCc1ccccc1-c1cc(F)ccc1OCC(=O)N(NC(=O)c1ccc(OCCOC)cc1)C(C)C [Example 30, 4-(2-methoxy-ethoxy)-benzoic acid N′-[2-(5-fluoro-2′-ethyl-biphenyl-2-yloxy)-acetyl]-N′-isopropyl hydrazide]",1.83
27,Cc1ccc(OCC(=O)N(NC(=O)c2ccccc2)C(C)C)c(-c2ccccc2OC(F)(F)F)c1 [Example 31],0.776
28,"CC(C)N(NC(=O)c1ccccc1)C(=O)COc1cc(F)c(F)cc1-c1ccccc1OC(F)(F)F [Example 32, benzoic acid N′-[2-(4,5-difluoro-2′-trifluoromethoxy-biphenyl-2-yloxy)-acetyl]-N′-isopropyl hydrazide]",0.938
29,"CC(C)N(NC(=O)c1ccccc1)C(=O)COc1c(F)cc(F)cc1-c1ccccc1OC(F)(F)F [Example 33, benzoic acid N′-[2-(3,5-difluoro-2′-trifluoromethoxy-biphenyl-2-yloxy)-acetyl]-N′-isopropyl hydrazide]",0.356
30,"CC(C)N(NC(=O)C1CCOCC1)C(=O)COc1ccc(F)cc1-c1ccccc1OC(F)(F)F [Example 34, tetrahydro-pyran-4-carboxylic-acid-N′-[2-(5-fluoro-2′-trifluoromethoxy-biphenyl-2-yloxy)-acetyl]-N′-isopropyl-hydrazide]",1.24
